Results published in patent publication US20040063662A1, “Selenophene anti-tumor agents” (priority 1996, published 2004).

How the values were obtained:
[1] = tested on: LOX IMVI; experiment: NCI human tumor cell panel: LOX IMVI (Melanoma); format: cell-based
[2] = tested on: OVCAR-5; experiment: NCI human tumor cell panel: OVCAR-5 (Ovarian Cancer); format: cell-based
[3] = tested on: SK-MEL-28; experiment: NCI human tumor cell panel: SK-MEL-28 (Melanoma); format: cell-based
[4] = tested on: SR; experiment: NCI human tumor cell panel: SR (Leukemia); format: cell-based
[5] = tested on: HS 578T; experiment: NCI human tumor cell panel: HS 578T (Breast Cancer); format: cell-based
[6] = tested on: NCI-H322M; experiment: cells; format: cell-based; conditions: Homo sapiens
[7] = tested on: M14; experiment: NCI human tumor cell panel: M14 (Melanoma); format: cell-based
[8] = tested on: TK-10; experiment: NCI human tumor cell panel: TK-10 (Renal Cancer); format: cell-based; conditions: TK-10, read-out: Log10 GI50 (converted)
[9] = tested on: EKVX; experiment: NCI human tumor cell panel: EKVX (Non-Small Cell Lung Cancer); format: cell-based
[10] = tested on: NCI-H522; experiment: NCI human tumor cell panel: NCI-H522 (Non-Small Cell Lung Cancer)
[11] = tested on: 786-0; experiment: NCI human tumor cell panel: 786-0 (Renal Cancer); format: cell-based
[12] = tested on: PC-3; experiment: NCI human tumor cell panel: PC-3 (Prostate Cancer); format: cell-based
[13] = tested on: MDA-N; experiment: NCI human tumor cell panel: MDA-N (Breast Cancer); format: cell-based
[14] = tested on: HCC-2998; experiment: NCI human tumor cell panel: HCC-2998 (Colon Cancer); format: cell-based
[15] = tested on: NCI-H23; experiment: NCI human tumor cell panel: NCI-H23 (Non-Small Cell Lung Cancer); format: cell-based
[16] = tested on: HT29; experiment: NCI human tumor cell panel: HT29 (Colon Cancer); format: cell-based
[17] = tested on: HOP-62; experiment: NCI human tumor cell panel: HOP-62 (Non-Small Cell Lung Cancer); format: cell-based
[18] = tested on: HOP-92; experiment: NCI human tumor cell panel: HOP-92 (Non-Small Cell Lung Cancer)
[19] = tested on: MCF7/ADR-RES; experiment: NCI human tumor cell panel: MCF7/ADR-RES (Breast Cancer); format: cell-based
[20] = tested on: SK-MEL-2; experiment: NCI human tumor cell panel: SK-MEL-2 (Melanoma); format: cell-based
[21] = tested on: OVCAR-4; experiment: NCI human tumor cell panel: OVCAR-4 (Ovarian Cancer); format: cell-based
[22] = tested on: SNB-19; experiment: NCI human tumor cell panel: SNB-19 (CNS Cancer); format: cell-based
[23] = tested on: SNB-75; experiment: NCI human tumor cell panel: SNB-75 (CNS Cancer); format: cell-based
[24] = tested on: IGROV1; experiment: NCI human tumor cell panel: IGROV1 (Ovarian Cancer); format: cell-based
[25] = tested on: UO-31; experiment: NCI human tumor cell panel: UO-31 (Renal Cancer); format: cell-based
[26] = tested on: U251; experiment: NCI human tumor cell panel: U251 (CNS Cancer); format: cell-based
[27] = tested on: HCT-15; experiment: NCI human tumor cell panel: HCT-15 (Colon Cancer); format: cell-based
[28] = tested on: MDA-MB-435; experiment: NCI human tumor cell panel: MDA-MB-435 (Breast Cancer); format: cell-based
[29] = tested on: SF-295; experiment: NCI human tumor cell panel: SF-295 (CNS Cancer); format: cell-based
[30] = tested on: SF-539; experiment: NCI human tumor cell panel: SF-539 (CNS Cancer); format: cell-based
[31] = tested on: NCI-H460; experiment: NCI human tumor cell panel: NCI-H460 (Non-Small Cell Lung Cancer); format: cell-based
[32] = tested on: BT-549; experiment: NCI human tumor cell panel: BT-549 (Breast Cancer); format: cell-based
[33] = read-out: Log10 GI50 (converted)
[34] = read-out: Log10 TGI (converted)

## OCc1ccc(-c2ccc(-c3ccc(CO)[se]3)[se]2)[se]1 [compound 675247]
[1]; [33]
  GI50: 3.02 µM
[1]; [34]
  IC (TGI): 7.08 µM
[2]; OVCAR-5, read-out: Log10 GI50 (converted)
  GI50: 1.32 µM
[2]; OVCAR-5, read-out: Log10 TGI (converted)
  IC (TGI): 12.9 µM
[3]; SK-MEL-28, read-out: Log10 GI50 (converted)
  GI50: 5.13 µM
[3]; SK-MEL-28, read-out: Log10 TGI (converted)
  IC (TGI): > 100 µM
[4]; [33]
  GI50: 3.72 µM
[4]; [34]
  IC (TGI): > 100 µM
[5]; [33]
  GI50: 3.24 µM
[5]; [34]
  IC (TGI): 11.2 µM
[6]; [33]
  GI50: 11.2 µM
[6]; [34]
  IC (TGI): 24.5 µM
[7]; M14, read-out: Log10 GI50 (converted)
  GI50: 3.72 µM
[7]; M14, read-out: Log10 TGI (converted)
  IC (TGI): 12.9 µM
[8]
  GI50: 0.138 µM
[9]; [33]
  GI50: 5.01 µM
[9]; [34]
  IC (TGI): 34.7 µM
[10]; NCI-H522, read-out: Log10 GI50 (converted)
  GI50: 1.66 µM
[10]; NCI-H522, read-out: Log10 TGI
  IC (TGI): 3.39 µM
[11]; 786-0, read-out: Log10 GI50 (converted)
  GI50: 2.75 µM
[11]; 786-0, read-out: Log10 TGI (converted)
  IC (TGI): 6.31 µM
[12]; PC-3, read-out: Log10 GI50 (converted)
  GI50: 3.55 µM
[12]; PC-3, read-out: Log10 TGI (converted)
  IC (TGI): 12.3 µM
[13]; [33]
  GI50: 7.76 µM
[13]; [34]
  IC (TGI): 25.1 µM
[14]; HCC-2998, read-out: Log10 GI50 (converted)
  GI50: 0.851 µM
[14]; HCC-2998, read-out: Log10 TGI (converted)
  IC (TGI): 3.24 µM
[15]; NCI-H23, read-out: Log10 GI50 (converted)
  GI50: 6.61 µM
[15]; NCI-H23, read-out: Log10 TGI (converted)
  IC (TGI): 25.1 µM
[16]; HT-29, HT29, read-out: Log10 GI50 (converted)
  GI50: 1.62 µM
[16]; HT-29, HT29, read-out: Log10 TGI (converted)
  IC (TGI): 7.59 µM
[17]; HOP-62, read-out: Log10 GI50 (converted)
  GI50: 5.5 µM
[17]; HOP-62, read-out: Log10 TGI (converted)
  IC (TGI): 21.4 µM
[18]; HOP-92, read-out: Log10 GI50 (converted)
  GI50: 2.4 µM
[18]; HOP-92, read-out: Log10 TGI
  IC (TGI): 7.59 µM
[19]; [33]
  GI50: 3.8 µM
[19]; [34]
  IC (TGI): 26.3 µM
[20]; SK-MEL-2, read-out: Log10 GI50 (converted)
  GI50: 7.08 µM
[20]; SK-MEL-2, read-out: Log10 TGI (converted)
  IC (TGI): 24 µM
[21]; OVCAR-4, read-out: Log10 GI50 (converted)
  GI50: 1.7 µM
[21]; OVCAR-4, read-out: Log10 TGI (converted)
  IC (TGI): 6.92 µM
[22]; SNB-19, read-out: Log10 GI50 (converted)
  GI50: 5.5 µM
[22]; SNB-19, read-out: Log10 TGI (converted)
  IC (TGI): 25.1 µM
[23]; SNB-75, read-out: Log10 GI50 (converted)
  GI50: 14.8 µM
[23]; SNB-75, read-out: Log10 TGI (converted)
  IC (TGI): 38.9 µM
[24]; IGROV-1, IGROV1, read-out: Log10 GI50 (converted)
  GI50: 1.38 µM
[24]; IGROV-1, IGROV1, read-out: Log10 TGI (converted)
  IC (TGI): 6.46 µM
[25]; UO-31, read-out: Log10 GI50 (converted)
  GI50: 5.25 µM
[25]; UO-31, read-out: Log10 TGI (converted)
  IC (TGI): 14.8 µM
[26]; U-251, U251, read-out: Log10 GI50 (converted)
  GI50: 0.468 µM
[26]; U-251, U251, read-out: Log10 TGI (converted)
  IC (TGI): 12.3 µM
[27]; HCT-15, read-out: Log10 GI50 (converted)
  GI50: 3.8 µM
[27]; HCT-15, read-out: Log10 TGI (converted)
  IC (TGI): 12.3 µM
[28]; MDA-MB-435, read-out: Log10 GI50 (converted)
  GI50: 2.95 µM
[28]; MDA-MB-435, read-out: Log10 TGI (converted)
  IC (TGI): 9.77 µM
[29]; SF-295, read-out: Log10 GI50 (converted)
  GI50: 11.7 µM
[29]; SF-295, read-out: Log10 TGI (converted)
  IC (TGI): 28.8 µM
[30]; SF-539, read-out: Log10 GI50 (converted)
  GI50: 17.4 µM
[30]; SF-539, read-out: Log10 TGI (converted)
  IC (TGI): 40.7 µM
[31]; NCI-H460, read-out: Log10 GI50 (converted)
  GI50: 0.525 µM
[31]; NCI-H460, read-out: Log10 TGI (converted)
  IC (TGI): 10 µM
[32]; BT-549, read-out: Log10 GI50 (converted)
  GI50: 3.39 µM
[32]; BT-549, read-out: Log10 TGI (converted)
  IC (TGI): 14.1 µM
